Patent US4036984A, “Soil fungi inhibiting agent” (Nissan Chemical Industries, Ltd., priority 1974, dated 1977)

Legend:
[1] = system: Fusarium oxysporum f. cucumerinum; experiment: Test 6: control of Fusarium wilt of cucumber by spraying stalks and leaves; format: in vivo; details: stalks and leaves sprayed with 2000 ppm, third week of transplanting
Method: Test of effect of fungicide on control of Fusarium wilt of cucumber, by spraying stalks and leaves with compound.
Fusarium oxysporum f. cucumerinum which had been cultivated for 1 month at 25° C. on soil-bran medium was air-dried overnight and then sifted through a 3mm-mesh sieve.
Next, 1500 g of sterilized diluvial soil (containing compost) was placed in a Wagner pot of 1/5000a, over which the soil prepared above was spread. Cucumber seedlings of one-leaf stage (variety: "Shimoshiraznjibai") which had been separately grown in styrol cups in a greenhouse were transplanted into said Wagner pot. Each of said cucumber seedlings was singly grown in a styrol cup with 200 g of soil. Seven days before it was transplanted, it was sprayed with a 2000 ppm solution of each compound until the stalks and leaves were completely wet.
Just after transplanting and at the end of each week after transplanting, the seedling was sprinkled until completely wet with a 2000 ppm solution of the compound. All the pots were kept in the greenhouse. The test was carried out on lots of three pots each with each pot holding four seedlings.
In the third week of transplanting all the seedlings were checked for the browning of vascular and in the same way as in Test 1.

[2] = system: Fusarium oxysporum f. cucumerinum; experiment: Fungicidal test by agar dilution method (colony diameter); format: cell-based; details: for diameter of the colony: 4 days, 25° C., PSA medium; for growth / inhibition of colony compared with the control: 250-1000 ppm
Method: Reference -- Fungicidal Test by Agar Dilution Method
100 mg of the invented compound was taken in a 30 ml conical flask, to which a drop of 1:1 mixture of Solpol 2680 (surface-active agent produced by Toho Kagaku) and xylene (about 25 mg), and 1 ml of acetone were added to dissolve therein. On the other hand, 9 ml of sterilized water separately was further added to emulsify, thereby yielding an emulsion of 10,000 ppm concentration. From this emulsion an emulsion of 5,000 ppm and one of 2,500 ppm were prepared through two times dilution.
In a 100 ml conical flask, 3 ml portion each of these emulsions was taken; 27 ml of potato-sucrose-agar (PSA) medium, at 50°-60° C. was added and uniformly blended. Ten ml of the obtained mixture was poured and hardened on a 10 cm-diameter petri dish.
Meanwhile, a colony of Fusarium oxysporum f. cucumerinum separately cultivated on potato-sucrose-agar (PSA) medium was stamped out by a 4mm-diameter cork-borer and inoculated on the above-mentioned mixed medium. After 4 days of cultivation in a chamber of 25° C., the diameter of the colony was measured, the results being summarized in Table 2. A case of the colony not having grown is indicated by the sign (-).

[3] = system: Fusarium oxysporum f. cucumerinum; experiment: Test 1: control of Fusarium wilt of cucumber (powder, pot test); format: in vivo; details: soil treatment 500 mg (5% powder) and additional irrigation 500 ppm, fourth week of transplanting
Method: Test of effect of fungicide on control of Fusarium wilt of cucumber (in case of using powder) Fusarium oxysporum f. cucumerinum which had been cultivated for 1 month at 25° C. on soil-bran medium was air-dried overnight and sifted through a 3mm-mesh sieve. 10g of said culture soil was blended with 600g of sterilized diluvial soil. To 200g of this blended soil were added 1200g of sterilized diluvial soil (containing 2.65 weight % of compost) and 1000mg or 500mg of 5% powder of the invented compound; and these were uniformly mixed in a vat. Next, 1500g of sterilized diluvial soil (containing compost) was placed in a wagner pot of 1/5000 are over which was spread the soil prepared above. Cucumber seedlings of one-leaf stage (variety: "Shimoshirazujibai") which had been cultivated separately in styrol cups in a greenhouse were transplanted into said wagner pot. Each of said cucumber seedlings was singly planted in 200g of the soil placed in said styrol cup and three days before its transplanting, 20 ml of an emulsion of each compound in 300 ppm concentration was irrigated over the soil. In the case of a pot whose soil had been treated with 1000 mg of the compound (5% powder), 14 days after transplanting, 50 ml of an emulsion of the compound in 1000 ppm concentration was additionally irrigated (Test I) and in the case of a pot whose soil had been treated with 500mg of the compound (5% powder), 50 ml of an emulsion of the compound in 500 ppm concentration was additionally irrigated (Test II). The pots were all kept in a greenhouse, and the test was carried out on lots each containing three pots, each pot holding four seedlings.
Every 2 days the withered seedlings were counted and in the fourth week of transplanting, the browning degree of vascular in each seedling was measured; and the effectiveness rating was determined as follows; [formula] (Note)* Fusarium lot is a treated lot containing only Fusarium oxysporum f. cucumerinum.
Sick score is obtained as follows:
Sick score = 3 × a + 2 × b + 1 × c + 0.5 × d + 0 […]
a -- number of withered seedlings b -- number of seedlings in which the browning of vascular has reached the cotyledon part c -- number of seedlings in which the browning of vascular is short of the cotyledon part d -- number of seedlings in which only brown spots have been recognized e -- number of perfectly sound seedlings a + b + c + d + e = 12

rats = details: cited from earlier work
[4] = in vivo; cited from earlier work
[5] = system: pests like fleas, mosquitoes etc.; details: cited from earlier work
[6] = system: Fusarium oxysporum f. cucumerinum; experiment: Test 2: control of Fusarium wilt of cucumber (emulsion, pot test); format: in vivo; details: emulsion irrigated 300 ppm, then 1000 ppm twice, third week of transplanting
Method: Test of effect of fungicide on control of Fusarium wilt of cucumber (in case of using emulsion).
Fusarium oxysporum f. cucumerinum which had been cultivated for 1 month at 25° C. on soil-bran medium was air-dried overnight and then sifted through a 3 mm-mesh sieve. 15g of said culture soil and 600g of sterilized diluvial soil were blended together.
Next, 1500g of sterilized diluvial soil (containing compost) was placed in a Wagner pot of 1/5000 are, over which the soil prepared above was spread. Cucumber seedlings of one-leaf stage (variety: "Shimoshirazujibai") which had been separately cultivated in styrol cups in a greenhouse were transplanted into said Wagner pot. Each of said cucumber seedlings was singly grown in a styrol cup with 200g of soil. Seven days before it was transplanted, 20 ml of an emulsion of each compound in 300 ppm was irrigated over the soil. Just after transplanting and two weeks after transplanting 50 ml of an emulsion of the compound in 1000 ppm was additionally irrigated. All pots were kept in the greenhouse, the test being carried out on lots each containing three pots and each pot holding four seedlings.
In the third week of transplanting all the seedlings were checked for the browning degree of vascular and in the same way as in Test 1, the effectiveness rating and the sick score were determined.

genus Bacillus = details: 2000 ppm; cited from earlier work
Escherichia coli = details: 2000 ppm; cited from earlier work
[7] = system: Micrococcus pyogenes var. aureus; details: 2000 ppm; cited from earlier work
[8] = system: Fusarium oxysporum f. cucumerinum; experiment: Fungicidal test by agar dilution method (colony diameter); format: cell-based; details: 2.5, 5 and 10 ppm

SMILES: CC(C)=CC(=O)OCCSc1ccccc1 [compound 74]
- Effectiveness Rating, 2000 ppm [1]: 62

SMILES: CCCCC(=O)OCCOc1ccccc1 [Compound No. 6]
- diameter of the colony ([2]; 250 ppm): 31 mm
- diameter of the colony ([2]; 500 ppm): 26 mm
- diameter of the colony ([2]; 1000 ppm): 22 mm

SMILES: CCCC(=O)OCCOc1ccccc1 [Compound No. 4]
- diameter of the colony ([2]; 250 ppm): 32 mm
- diameter of the colony ([2]; 500 ppm): 27 mm
- diameter of the colony ([2]; 1000 ppm): 22 mm
- Effectiveness Rating II [3]: 30

SMILES: CC(C)(O)CC(=O)OCCOc1ccccc1 [compound 37]
- Effectiveness Rating, 2000 ppm [1]: 40

SMILES: CC(=O)OCCOc1ccccc1 [Compound No. 2]
- diameter of the colony ([2]; 250 ppm): 37 mm
- diameter of the colony ([2]; 500 ppm): 26 mm
- Effectiveness Rating II [3]: 80
- Effectiveness Rating, 2000 ppm [1]: 67
- LD50, acute oral toxicity (rats): 4900 mg/kg
- skin cancer [4]: not likely to cause skin cancer
- repellency [5]: feebly repellant

SMILES: CCC(C)C(=O)OCCOc1ccccc1 (stereo not shown) [Compound No. 7]
- diameter of the colony ([2]; 250 ppm): 25 mm
- diameter of the colony ([2]; 500 ppm): 23 mm
- diameter of the colony ([2]; 1000 ppm): 16 mm

SMILES: CCCCCCCC(=O)OCCOc1ccccc1 [compound 11]
- diameter of the colony ([2]; 250 ppm): 36 mm
- diameter of the colony ([2]; 500 ppm): 32 mm
- diameter of the colony ([2]; 1000 ppm): 29 mm

SMILES: CC(C)(C)C(=O)OCCOc1ccccc1 [compound 15]
- diameter of the colony ([2]; 250 ppm): 19 mm
- diameter of the colony ([2]; 500 ppm): 17 mm
- diameter of the colony ([2]; 1000 ppm): 13 mm

SMILES: CSCC(=O)OCCOc1ccccc1 [Compound No. 67, β-phenoxyethyl S-methylglycolate]
- Effectiveness Rating [6]: 89

SMILES: CC(C)C(=O)C(=O)OCCOc1ccccc1 [Compound No. 45, β-phenoxyethyl 2-oxo-3-methyl-butanoate]
- Effectiveness Rating, 2000 ppm [1]: 76

SMILES: CCCCCCCCCC(=O)OCCOc1ccccc1 [compound 12]
- growth / inhibition of colony compared with the control [2]: same growth as the control
- diameter of the colony ([2]; 250 ppm): 46 mm
- diameter of the colony ([2]; 500 ppm): 41 mm
- diameter of the colony ([2]; 1000 ppm): 38 mm

SMILES: CC(C)C(=O)OCCOc1ccccc1 [Compound No. 5]
- diameter of the colony ([2]; 250 ppm): 30 mm
- diameter of the colony ([2]; 500 ppm): 23 mm
- diameter of the colony ([2]; 1000 ppm): 17 mm
- bactericidal effect (genus Bacillus): non-bactericidal
- bactericidal effect (Escherichia coli): non-bactericidal
- bactericidal effect [7]: non-bactericidal

SMILES: C=CC(=O)OCCOc1ccccc1 [Compound No. 23, β-phenoxyethylacrylate]
- Effectiveness Rating, 2000 ppm [1]: 30

SMILES: CC(C)CC(=O)OCCOc1ccccc1 [Compound No. 8]
- diameter of the colony ([2]; 250 ppm): 24 mm
- diameter of the colony ([2]; 500 ppm): 19 mm
- diameter of the colony ([2]; 1000 ppm): 15 mm
- Effectiveness Rating II [3]: 50

SMILES: CCCCCC(=O)OCCOc1ccccc1 [compound 9]
- diameter of the colony ([2]; 250 ppm): 33 mm
- diameter of the colony ([2]; 500 ppm): 30 mm
- diameter of the colony ([2]; 1000 ppm): 22 mm

SMILES: CCCCNC(=O)n1c(NC(=O)OC)nc2ccccc21 [Benomyl, methyl-1-(butylcarbamonyl)-2-benzimidazolcarbamate, reference compound]
- Effectiveness Rating II [3]: 44
- growth of the colony [8]: no growth of the colony was evident

SMILES: CCCCCCC(=O)OCCOc1ccccc1 [compound 10]
- diameter of the colony ([2]; 250 ppm): 33 mm
- diameter of the colony ([2]; 500 ppm): 28 mm
- diameter of the colony ([2]; 1000 ppm): 24 mm

SMILES: CC(CC(=O)OCCOc1ccccc1)CC(C)(C)C (stereo not shown) [compound 14]
- diameter of the colony ([2]; 250 ppm): 38 mm
- diameter of the colony ([2]; 500 ppm): 38 mm
- diameter of the colony ([2]; 1000 ppm): 35 mm

SMILES: CCCCCCCCCCCC(=O)OCCOc1ccccc1 [compound 13]
- growth / inhibition of colony compared with the control [2]: same growth as the control
- diameter of the colony ([2]; 250 ppm): 49 mm
- diameter of the colony ([2]; 500 ppm): 45 mm
- diameter of the colony ([2]; 1000 ppm): 40 mm

SMILES: O=COCCOc1ccccc1 [Compound No. 1]
- diameter of the colony ([2]; 250 ppm): 40 mm
- diameter of the colony ([2]; 500 ppm): 30 mm
- diameter of the colony ([2]; 1000 ppm): 10 mm

SMILES: CCC(=O)OCCOc1ccccc1 [Compound No. 3]
- diameter of the colony ([2]; 250 ppm): 25 mm
- diameter of the colony ([2]; 500 ppm): 20 mm
- diameter of the colony ([2]; 1000 ppm): 9 mm
- Effectiveness Rating II [3]: 32
